Results on 7 molecules are retold here after US20240009213A1, “TREATMENT FOR VIRAL INFECTION” (priority 2020, published 2024).

Structures are written as SMILES.

The subject of experiment [1] is influenza A/California/07/2009 (H1N1), influenza A/PR/8/1934 (H1N1), influenza A/Vietnam/1194/2004 (H5N1). Put plainly: microbe, parasite or virus in culture. As to conditions: for IC50: Influenza A virus, MDCK, 50 h. Format: cell-based, influenza A virus.
In experiment [2] the test system is influenza A/PuertoRico/1934 (H1N1). Nature of the experiment: Protection of mice against lethal influenza H1N1 challenge. Format: in vivo, BALB/c mice. As to conditions: 5×LD50 influenza A/PuertoRico/1934 (H1N1) day 0; 25 mg/kg orally once daily day 1 to day 7.
Experiment [3] has as its system SARS-CoV-2. Nature of the experiment: Protection of mice against lethal SARS-CoV-2 challenge. As to conditions: 5×LD50 SARS-CoV-2 day 0; 25 mg/kg orally once daily day 1 to day 7. Type of experiment: in vivo, F1 mice of BALB/c/C57BL6 mice.
The subject of experiment [4] is SARS-CoV-2. Type of experiment: cell-based.

The term IC50 denotes the concentration needed to halve the response being measured. Higher therefore signals lower potency. As to `CCc1cc2c(cc1N1CCC(N3CCOCC3)CC1)C(C)(C)c1[nH]c3cc(C#N)ccc3c1C2=O` [alectinib, 9-ethyl-6,6-dimethyl-8-(4-morpholin-4-ylpiperidin-1-yl)-11-oxo-5H-benzo[b]carbazole-3-carbonitrile], the IC50 in experiment [1] lay within 1000 to 4000 nM.
In experiment [1], `COc1cc(N2CCC(N3CCN(C)CC3)CC2)ccc1Nc1ncc(Cl)c(Nc2ccccc2P(C)(C)=O)n1` [brigatinib, 5-chloro-4-N-(2-dimethylphosphorylphenyl)-2-N-[2-methoxy-4-[4-(4-methylpiperazin-1-yl)piperidin-1-yl]phenyl]pyrimidine-2,4-diamine] had an IC50 of 1000 to 4000 nM. In addition, the survival of mice in experiment [2] is given as 12.5%.
As to `Cc1cc(Nc2ncc(Cl)c(Nc3ccccc3S(=O)(=O)C(C)C)n2)c(OC(C)C)cc1C1CCNCC1` [ceritinib, 5-chloro-2-N-(5-methyl-4-piperidin-4-yl-2-propan-2-yloxyphenyl)-4-N-(2-propan-2-ylsulfonylphenyl)pyrimidine-2,4-diamine], the IC50 in experiment [1] lay in the range of 100 to 1000 nM. In addition, the survival of mice in the experiment with SARS-CoV-2 [3] was 29%.
The molecule `C[C@@H](Oc1cc(-c2cnn(C3CCNCC3)c2)cnc1N)c1c(Cl)ccc(F)c1Cl` [crizotinib, 3-[(1R)-1-(2,6-dichloro-3-fluorophenyl)ethoxy]-5-(1-piperidin-4-ylpyrazol-4-yl)pyridin-2-amine] gave an IC50 in experiment [1] of 1000 to 4000 nM. This molecule also yielded a survival of mice in experiment [2] of 38%.
In experiment [1], `C[C@@H]1CN(C(=O)c2ccc(NC(=O)c3cc(O[C@H](C)c4c(Cl)ccc(F)c4Cl)c(N)nn3)cc2)C[C@H](C)N1` [ensartinib, 6-amino-5-[(1R)-1-(2,6-dichloro-3-fluorophenyl)ethoxy]-N-[4-[(3R,5S)-3,5-dimethylpiperazine-1-carbonyl]phenyl]pyridazine-3-carboxamide] registered an IC50 of 1000 to 4000 nM.
Molecule `CN1CCN(c2ccc(C(=O)Nc3n[nH]c4ccc(Cc5cc(F)cc(F)c5)cc34)c(NC3CCOCC3)c2)CC1` [entrectinib, N-[5-[(3,5-difluorophenyl)methyl]-1H-indazol-3-yl]-4-(4-methylpiperazin-1-yl)-2-(oxan-4-ylamino)benzamide] yielded an IC50 in experiment [1] of 1000 to 4000 nM.
As to `C[C@H]1Oc2cc(cnc2N)-c2c(nn(C)c2C#N)CN(C)C(=O)c2ccc(F)cc21` [lorlatinib], the “virus assembly/secretion (viral OD, viral titres)” value in experiment [1] is “viral titres remain high for all doses tested”. Besides, the “inhibition of SARS-CoV-2” value with SARS-CoV-2 [4] is reported as “but not lorlatinib, inhibited SARS-CoV-2”.
